≈ marks a conversion by molar mass, not a printed value. Where “and” joins values, the source holds several entries; their conditions need not be identical. Identical values can stand only once.
What was measured:
[1] = Sub-zero freezing and thawing of 3×, 4× and 100% HMBi after the 56 day study; format: physicochemical
Experimental: Each bar represents a data collection day: 1, 7, 14, 21, 29, 35, 42, 50, and 56 days. […] Mixing or re-circulation every other day will also maintain positional and product stability plus decrease product viscosity. Additionally, lower temperatures were tried for the 3× and 4× plus the HMBi straight or 100% additive after the 56 day study. […] However, the 100% HMBi was frozen solid. The liquid 100% HMBi freezes or solidifies at temperatures below 54° F. or 12° C. when the HMBi liquid is acted upon by an outside force such as mixing or pumping. This “Superfusion” property of the liquid 100% HMBi requires expensive heated storage equipment and plumbing to allow for use in a feed mill environment. After 72 hours in a deep freeze, the 3× and 4× also froze solid.

[2] = Freeze/thaw study: viscosity, flowability and superfusion (Example 2); format: physicochemical
Experimental: A range of inclusion rates of the HMBi was used in the second example to further investigate the reduction or retardation of the superfusion property of the methionine analog (HMBi) added to a simple feed mill blend molasses liquid product.
Eight formulations were evaluated in regards to product positional stability, product pH, temperature, viscosity as affected by temperature and time. Viscosity measurements were being used to determine flow ability thus whether or not the product can be pumped without external heating. If HMBi is stored in conditions where its temperature drops below 54° F. (12.2° C.), it will solidify or undergo superfusion which will not allow it to be pumped. As you can see in FIG. 6, the HMBi is solid and will remain solid for several hours while thawing. During the thawing process, the HMBi will liquefy with a solid ball surrounded by liquid. This solid ball could potentially plug the inside fixture of a tank not allowing for flow to the pump. During the Example E2 study, it took about eight days of the 100% HMBi in sub-zero temperatures before it underwent superfusion. The container in FIG. 6 had to be shaken quite vigorously to get the HMBi to solidify. It was not moved until the late afternoon of day 7. By the morning of day 8, it was solid.
The containers used were clear PET plastic one quart capacity with wide mouth openings. All samples were placed in a sub-zero freezer until the samples were solid. As stated above, it took eight days for the 100% HMBi to undergo the superfusion process, thus all eight samples were frozen solid at about −9° F. (−22.8° C.) which is exactly what was needed for Example E2.
Once all samples were frozen, they were moved to a force-draft fume hood to allow warm air to be drawn over the jars to hasten thawing. When the samples were soft enough to get a metal tipped thermometer into the samples, temperatures were taken and recorded. Viscosity was measured once the samples thawed enough; temperatures were also taken at that time. The process of freezing and thawing was repeated once. These samples were not stirred or shaken except for the 100% HMBi sample to get it to undergo superfusion.
All formulated samples were mixed by the procedures and using the equipment described in Example E1. The same temperature probe, viscometer, and pH meter were also used.
Observations and data were collected when the samples had thawed enough to allow for viscosity and temperature measurements. The freezing and thawing was repeated once to confirm results. Laboratory room temperature was between 68 to 70° F. Any product having a viscosity over 5,000 cPs using a spindle sO5 will not flow nor be pumpable without added heat.

[3] = cited from earlier work
[4] = dairy cows; cited from earlier work

For `CSCCC(O)C(=O)OC(C)C` (stereo not shown) [100% HMBi, isopropyl ester of 2-hydroxy-4-methylthiobutanoic acid], the Flowability / state ([1]; less than 0° F. or -17.8° C. for 24 hours) was “frozen solid”, the “Further time until return to a liquid state” value ([1]; thawing after deep freeze) was “about 12 hours” and the “Temperature at return to a liquid state” value ([1]; thawing after deep freeze) was “approximately 56 ° F”. For the same molecule, the Viscosity ([2]; Dec. 31, 2009, initial, 77.3-79.6 °F, spindle sO1/sO2) was 37 cPs, the Viscosity ([2]; Jan. 1, 2010, in freezer, -1.0 to 1.3 °F, spindle sO6 (100%: sO1)) was 174 cPs and 173.6 cPs and the Viscosity ([2]; Jan. 2, 2010, in freezer, -3.9 to -0.2 °F, spindle sO6 (100%: sO1)) was 157.6 cPs. For the same molecule, the “Physical state (no viscosity reading)” value ([2]; Jan. 14, 2010, 2:59-3:34 PM, thawing) was “solid”, the “Physical state (no viscosity reading)” value ([2]; Jan. 14, 2010, 2:59-3:34 PM, thawing, listed as 100%) was “SOLID” and the “Physical state (no viscosity reading)” value ([2]; Jan. 14, 2010, 3:50-4:15 PM, thawing) was “still solid”. The “Physical state (no viscosity reading)” value ([2]; Jan. 14, 2010, 3:50-4:15 PM, thawing, listed as 100%) was “SOLID”, the “Physical state (no viscosity reading)” value ([2]; Jan. 14, 2010, 4:40-5:10 PM, thawing, 47.7 °F) was “semi-solid” and the “Physical state (no viscosity reading)” value ([2]; Jan. 14, 2010, 4:40-5:10 PM, thawing, 47.7 °F, listed as 100%) was “SEMI-SOLID”. For the same molecule, the “Physical state (no viscosity reading)” value ([2]; Jan. 15, 2010, 4:19-4:51 PM, second thaw, 45.0 °F) was “semi-solid”, the “Physical state (no viscosity reading)” value ([2]; Jan. 15, 2010, 4:19-4:51 PM, second thaw, 45.0 °F, listed as 100%) was “SEMI-SOLID” and the “Physical state (no viscosity reading)” value ([2]; Jan. 15, 2010, 10:55-11:20 AM, second freeze) was “solid”. For the same molecule, the “Physical state (no viscosity reading)” value ([2]; Jan. 15, 2010, 10:55-11:20 AM, second freeze, listed as 100%) was “SOLID”, the “Physical state (no viscosity reading)” value ([2]; Jan. 15, 2010, 12:05-12:27, second thaw) was “semi-solid” and the “Physical state (no viscosity reading)” value ([2]; Jan. 15, 2010, 12:05-12:27, second thaw, listed as 100%) was “SOLID”. For the same molecule, the “Time in sub-zero temperatures before superfusion” value ([2]; sub-zero freezer, shaken on day 7) was “about eight”, the “Viscosity at 20° C.” value ([3]; 20 °C) was 19.2 mPa/s and the “Crystallization (solidification, superfusion) temperature” value ([3]; ambient pressure) was “below 54 ° F”. The pH ([3]; in a 1% aqueous solution) was 3.6, the Solubility ([3]; water at 30° C.) was 25.1 mg/mL (≈ 131 mM) and the metabolizable methionine provided [4] was 370 g/kg. For the same molecule, the “rumen available HMB provided” value [4] was 370 g/kg.

From US20150080468A1, “COMPOSITION AND METHOD FOR PROCESSING AND DELIVERING BIOAVAILABLE METHIONINE ANALOGS, DERIVATIVES, AND PRECURSORS, THEREOF” (QUALITY LIQUID FEEDS, priority 2013, published 2015)
